Reference: patent US9107909B2, “Materials and methods to enhance hematopoietic stem cells engraftment procedures” (priority 2008, dated 2015)
Values joined by “and” are separate entries in the source; they are usually repeats but may differ in a detail not shown here. Equal entries are not always repeated. “Also recorded” adds a separate entry of the source.

Assays:
[1] = test system: long-term repopulating HSPC; experiment: Limiting dilution competitive transplantation of ex vivo pulsed bone marrow; assay type: in vivo, mouse
Method: WBM cells (CD45.2) were treated on ice for 2 hours with either 1 microMolar dmPGE2 (Cayman Chemical, Ann Arbor, Mich.) per 1×10^6 cells or 0.01% ETOH in sterile, non-pyrogenic PBS. After incubation, cells were washed twice and mixed with 2×10^5 congenic CD45.1 competitor marrow cells at ratios of 0.075:1, 0.25:1, 1:1, and 2.5:1 and transplanted into lethally irradiated CD45.1 mice (1100-cGy split dose) by tail-vein injection (5 mice per dilution). CD45.1 and CD45.2 cells in PB were determined monthly by flow cytometry. For head-to-head competitive transplants, WBM from CD45.1 mice and CD45.2 mice were treated with vehicle or dmPGE2 and mixed with 2×10^5 competitor marrow cells from CD45.1/CD45.2 mice at ratios of 0.075:1, 0.25:1, 1:1, and 2.5:1 and transplanted into lethally irradiated CD45.1/CD45.2 mice. The proportion of CD45.1, CD45.2, and CD45.1/CD45.2 cells in PB was determined monthly. HSPC frequency was quantitated by Poisson statistics using L-CALC software (Stem Cell Technologies, Vancouver BC, Canada) with <5% contribution to chimerism considered a negative recipient. Competitive repopulating units (CRU) were calculated as described (Harrison, 1980). For secondary transplants, 2×10^6 WBM from previously transplanted F1 Hybrid mice at the 1:1 ratio at 20 weeks post-transplant were injected into lethally irradiated F1 Hybrid mice in non-competitive fashion and PB chimerism and tri-lineage reconstitution evaluated monthly.
Referring now to FIG. 1A, bone marrow from CD45.1 or CD45.2 mice were treated with vehicle or dmPGE2 respectively. CD45.1/CD45.2 hybrid marrow cells were used as competitors. Limiting dilutions were transplanted into lethally irradiated (1100 cGys, split dose) CD45.1/CD45.2 hybrid mice and chimerism in PB analyzed for 20 weeks. A representative flow plot detecting each cell population is shown (bottom panel).
Referring now to FIG. 1B, frequency analysis (top) for vehicle (red) or dmPGE2 (blue) pulsed cells, determined by Poisson statistics, at 12 weeks; P0=85,560 (vehicle) and P0=23,911 (dmPGE2 treated). Chimerism in PB and CRU analysis is shown at 12 weeks (Mean±SEM). Data represent 2 pooled experiments, n=5 mice/group/expt., each assayed individually.
This model permits quantitative comparison of engraftment and competitiveness of HSPC from control and dmPGE2 treatment groups within the same animal (FIG. 1A), as well as endogenous repopulation of host cells.
For head-to-head competitive analysis, WBM from CD45.1 and CD45.2 mice were treated with vehicle or dmPGE2 and mixed with 2×10^5 competitor marrow cells from CD45.1/CD45.2 mice at various ratios and transplanted into lethally-irradiated CD45.1/CD45.2 mice. The proportion of CD45.1, CD45.2, and CD45.1/CD45.2 cells in PB was determined monthly. For secondary, tertiary and quaternary transplants, 2×10^6 WBM from previously transplanted CD45.1/CD45.2 mice at a 1:1 ratio were injected into lethally-irradiated CD45.1/CD45.2 mice in non-competitive fashion. The proportion of CD45.1, CD45.2, and CD45.1/CD45.2 cells in PB was determined monthly. […] Data for 20 week primary transplant were from 2 pooled experiments, n=5 mice/group/experiment, each assayed individually. Data for secondary, tertiary, and quaternary transplants were from n=5 mice/group, each assayed individually

[2] = test system: Survivin in murine SKL cells; experiment: Intracellular Survivin by FACS, murine SKL cells; assay type: cell-based, mouse; details: vs control; for increase in Survivin protein, murine SKL cells: 24 hours post-pulse
Description: (§1) All antibodies were purchased from BD Biosciences unless otherwise noted. For detection and sorting of murine KL and SKL cells, streptavidin conjugated with PE-Cy7 (to stain for biotinylated MACS lineage antibodies (Miltenyi Biotech, Auburn, Calif.)), c-kit-APC, Sca-1-PE or APC-Cy7, CD45. 1-PE and CD45.2-FITC were used. UCB CD34^+ cells were detected using anti-human-CD34-APC. For multilineage analysis, APC-Cy7-Mac-1, PE-Cy7-B-220 and APC-CD3 were used. EP receptors were detected with anti EP1, EP2, EP3 and EP4 rabbit IgG (Cayman Chemicals) and secondary staining with FITC-goat-anti-rabbit IgG (Southern Biotech, Birmingham, Ala.). CXCR4 expression was analyzed using streptavidin-PECy7, c-kit-APC, Sca-1-APC-Cy7, and CXCR4-PE. Apoptosis was measured with FITC-Annexin-V. For Survivin and active caspase-3 detection, cells were permeabilized and fixed using the CytoFix/CytoPerm kit (BD) and stained with anti-active-caspase-3-FITC Flow Kit (BD) or Survivin-PE (R&D Systems).
Expression of EP receptors, CXCR4 and Survivin Replicate Lin^neg cell samples from CD45.2 mice were stained for SKL and each of the EP receptors and surface receptor expression on KL and SKL cells determined by FACS. For human EP receptors, UCB was obtained from Wishard Hospital, Indianapolis, Ind. with Institutional Review Board approval. Mononuclear cells were isolated on Ficoll-Paque™ Plus (Amersham Biosciences) and CD34^+ cells positively selected with MACS microbeads (Miltenyi Biotech) (Fukuda and Pelus, 2001). Replicate cells were stained for CD34 and each of the EP receptors and surface expression determined by FACS. To evaluate CXCR4, Survivin and active caspase-3, Lin^neg cells or CD34^+ UCB were treated on ice with either 1 microMolar dmPGE2 or vehicle control for 2 hours, washed, and then cultured in RPMI-1640+10% FBS at 37° C. for 24 hours. Cells were stained for SKL (murine cells) and CXCR4, Survivin, and/or active caspase-3, as described above, and analyzed by FACS. […]

[3] = test system: active caspase-3 in SKL cells; experiment: Active caspase-3 by FACS in SKL cells; assay type: cell-based, mouse
Description: as §1
Expression of EP receptors, CXCR4 and Survivin Replicate Lin^neg cell samples from CD45.2 mice were stained for SKL and each of the EP receptors and surface receptor expression on KL and SKL cells determined by FACS. […] Replicate cells were stained for CD34 and each of the EP receptors and surface expression determined by FACS. […]

[4] = 12 weeks post-transplant, vs vehicle treated cells

SMILES | chimerism in peripheral blood [1, 4] | increase in HSPC frequency and competitive repopulating units (CRU) [1, 4] [fold] | reconstitution of B- and T-lymphoid and myeloid lineages in PB ([1]; 32 weeks post-transplant, vs untreated competitor or vehicle treated cells) | HSPC frequency analysis P0 (Poisson statistics) ([1]; at 12 weeks, pulsed cells) | chimerism in serial (secondary, tertiary, quaternary) transplants ([1]; no additional treatment before serial transplant) | increase in HSPC frequency ([1]; throughout 20 weeks of follow up post-transplant) [fold] | increase in Survivin protein, murine SKL cells [2] [fold] | Survivin mRNA ([2]; QRT-PCR) | active caspase-3 in SKL cells ([3]; 24, 48 and 72 hours post-exposure, vs control) | number of treated cells giving equivalent reconstitution vs control cells ([1]; frequency analysis, limiting dilution) | period over which enhanced engraftment / HSPC frequency was stable ([1]; primary transplant) | competitive advantage / increase in HSPC frequency of PGE2-pulsed HSPC ([1]; short-term ex vivo exposure, vs control cells, Poisson statistics and CRU) [fold] | decrease in active caspase-3 ([3]; 24-72 hours post exposure)
CCCCC(C)(C)[C@H](O)/C=C/[C@H]1[C@H](O)CC(=O)[C@@H]1C/C=C\CCCC(=O)O [dmPGE2, 16,16-dimethyl prostaglandin E2] | increased chimerism | ~4 | no discernible differences | 23,911 | also seen in secondary transplants; also recorded: Increased chimerism | ~4 | 1.7 | elevated Survivin mRNA | decreased active caspase-3 | – | – | – | –
CCCCC[C@H](O)/C=C/[C@H]1[C@H](O)CC(=O)[C@@H]1C/C=C\CCCC(=O)O [PGE2, Prostaglandin E2] | – | – | – | – | – | – | 1.7 | – | – | one-fourth | 28 weeks and > 20 weeks | 4 | 23-59%
